Experimental data: PubChem BioAssay (NCI)
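96-well plates; 48 h exposure; 5 concentrations. Endpoints by linear interpolation between flanking doses. Not reached: highest tested concentration assigned. TGI: concentration producing complete growth inhibition.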

How the values were obtained:
Assay in all cases: DTP human tumour cell line panel, 48 h
DLD-1 colon = test system: DLD-1 colon
OVCAR-4 ovarian = test system: OVCAR-4 ovarian
LXFL 529 NSCLC = test system: LXFL 529 NSCLC
SN12C renal = test system: SN12C renal
HL-60(TB) leukemia = test system: HL-60(TB) leukemia
HOP-62 NSCLC = test system: HOP-62 NSCLC
U251 CNS = test system: U251 CNS
COLO 205 colon = test system: COLO 205 colon
EKVX NSCLC = test system: EKVX NSCLC
NCI-H522 lung = test system: NCI-H522 lung
OVCAR-3 ovarian = test system: OVCAR-3 ovarian
SF-539 CNS = test system: SF-539 CNS
HOP-18 NSCLC = test system: HOP-18 NSCLC
HOP-92 NSCLC = test system: HOP-92 NSCLC
KM12 colon = test system: KM12 colon
K-562 leukemia = test system: K-562 leukemia
ACHN renal = test system: ACHN renal
HT29 colon = test system: HT29 colon
SF-295 CNS = test system: SF-295 CNS
UACC-62 melanoma = test system: UACC-62 melanoma
MALME-3M melanoma = test system: MALME-3M melanoma
M19-MEL melanoma = test system: M19-MEL melanoma
SK-MEL-5 melanoma = test system: SK-MEL-5 melanoma
SF-268 CNS = test system: SF-268 CNS
M14 melanoma = test system: M14 melanoma
OVCAR-8 ovarian = test system: OVCAR-8 ovarian
SK-MEL-2 melanoma = test system: SK-MEL-2 melanoma
A498 renal = test system: A498 renal
IGROV1 ovarian = test system: IGROV1 ovarian
MOLT-4 leukemia = test system: MOLT-4 leukemia
HCC-2998 colon = test system: HCC-2998 colon
TK-10 renal = test system: TK-10 renal
SNB-19 CNS = test system: SNB-19 CNS
A549 NSCLC = test system: A549 NSCLC
786-0 renal = test system: 786-0 renal
SW-620 colon = test system: SW-620 colon
OVCAR-5 ovarian = test system: OVCAR-5 ovarian
UACC-257 melanoma = test system: UACC-257 melanoma
SK-MEL-28 melanoma = test system: SK-MEL-28 melanoma
NCI-H23 lung = test system: NCI-H23 lung
SNB-78 CNS = test system: SNB-78 CNS
HCT-15 colon = test system: HCT-15 colon
KM20L2 colon = test system: KM20L2 colon
CCRF-CEM leukemia = test system: CCRF-CEM leukemia
NCI-H460 lung = test system: NCI-H460 lung
UO-31 renal = test system: UO-31 renal
NCI-H226 lung = test system: NCI-H226 lung
RPMI-8226 leukemia = test system: RPMI-8226 leukemia
SNB-75 CNS = test system: SNB-75 CNS
RXF 393 renal = test system: RXF 393 renal
CAKI-1 renal = test system: CAKI-1 renal
HCT-116 colon = test system: HCT-116 colon
DMS 273 small cell lung = test system: DMS 273 small cell lung
SR leukemia = test system: SR leukemia
LOX IMVI melanoma = test system: LOX IMVI melanoma
SK-OV-3 ovarian = test system: SK-OV-3 ovarian
DMS 114 small cell lung = test system: DMS 114 small cell lung

Compound: CCCCCNC(=O)C1C(=O)N(CCCCC)C(=O)/C1=N\N (centres undefined)
- TGI (DLD-1 colon): > 100 µM
- TGI (OVCAR-4 ovarian): > 100 µM
- TGI (LXFL 529 NSCLC): > 100 µM
- TGI (SN12C renal): > 100 µM
- TGI (HL-60(TB) leukemia): > 100 µM
- TGI (HOP-62 NSCLC): > 100 µM
- TGI (U251 CNS): > 100 µM
- TGI (COLO 205 colon): > 100 µM
- TGI (EKVX NSCLC): > 100 µM
- TGI (NCI-H522 lung): > 100 µM
- TGI (OVCAR-3 ovarian): > 100 µM
- TGI (SF-539 CNS): > 100 µM
- TGI (HOP-18 NSCLC): > 100 µM
- TGI (HOP-92 NSCLC): 95.4 µM
- TGI (KM12 colon): > 100 µM
- TGI (K-562 leukemia): > 100 µM
- TGI (ACHN renal): > 100 µM
- TGI (HT29 colon): > 100 µM
- TGI (SF-295 CNS): > 100 µM
- TGI (UACC-62 melanoma): > 100 µM
- TGI (MALME-3M melanoma): > 100 µM
- TGI (M19-MEL melanoma): > 100 µM
- TGI (SK-MEL-5 melanoma): > 100 µM
- TGI (SF-268 CNS): > 100 µM
- TGI (M14 melanoma): > 100 µM
- TGI (OVCAR-8 ovarian): > 100 µM
- TGI (SK-MEL-2 melanoma): 86.2 µM
- TGI (A498 renal): > 100 µM
- TGI (IGROV1 ovarian): > 100 µM
- TGI (MOLT-4 leukemia): > 100 µM
- TGI (HCC-2998 colon): > 100 µM
- TGI (TK-10 renal): > 100 µM
- TGI (SNB-19 CNS): > 100 µM
- TGI (A549 NSCLC): > 100 µM
- TGI (786-0 renal): > 100 µM
- TGI (SW-620 colon): > 100 µM
- TGI (OVCAR-5 ovarian): > 100 µM
- TGI (UACC-257 melanoma): > 100 µM
- TGI (SK-MEL-28 melanoma): > 100 µM
- TGI (NCI-H23 lung): > 100 µM
- TGI (SNB-78 CNS): 60 µM
- TGI (HCT-15 colon): > 100 µM
- TGI (KM20L2 colon): > 100 µM
- TGI (CCRF-CEM leukemia): > 100 µM
- TGI (NCI-H460 lung): > 100 µM
- TGI (UO-31 renal): 81.8 µM

Compound: Cc1cc(N(CCC#N)CCC#N)ccc1N=Nc1ccc([N+](=O)[O-])cc1
- TGI (OVCAR-4 ovarian): 44.1 µM
- TGI (SN12C renal): > 100 µM
- TGI (HL-60(TB) leukemia): > 100 µM
- TGI (HOP-62 NSCLC): > 100 µM
- TGI (U251 CNS): 36.1 µM
- TGI (NCI-H226 lung): > 100 µM
- TGI (COLO 205 colon): > 100 µM
- TGI (EKVX NSCLC): > 100 µM
- TGI (NCI-H522 lung): > 100 µM
- TGI (OVCAR-3 ovarian): > 100 µM
- TGI (SF-539 CNS): > 100 µM
- TGI (RPMI-8226 leukemia): > 100 µM
- TGI (HOP-92 NSCLC): > 100 µM
- TGI (KM12 colon): > 100 µM
- TGI (K-562 leukemia): > 100 µM
- TGI (ACHN renal): > 100 µM
- TGI (HT29 colon): > 100 µM
- TGI (SNB-75 CNS): > 10 µM
- TGI (RXF 393 renal): > 100 µM
- TGI (SF-295 CNS): > 100 µM
- TGI (UACC-62 melanoma): > 10 µM
- TGI (MALME-3M melanoma): > 100 µM
- TGI (M19-MEL melanoma): > 100 µM
- TGI (SK-MEL-5 melanoma): > 10 µM
- TGI (CAKI-1 renal): > 100 µM
- TGI (HCT-116 colon): 31.6 µM
- TGI (SF-268 CNS): > 100 µM
- TGI (M14 melanoma): > 100 µM
- TGI (OVCAR-8 ovarian): 56.9 µM
- TGI (SK-MEL-2 melanoma): > 100 µM
- TGI (A498 renal): > 100 µM
- TGI (DMS 273 small cell lung): 44.4 µM
- TGI (MOLT-4 leukemia): > 100 µM
- TGI (HCC-2998 colon): > 100 µM
- TGI (TK-10 renal): 83.2 µM
- TGI (SNB-19 CNS): 57.3 µM
- TGI (A549 NSCLC): > 100 µM
- TGI (SR leukemia): > 100 µM
- TGI (LOX IMVI melanoma): 80.6 µM
- TGI (786-0 renal): > 100 µM
- TGI (SW-620 colon): > 10 µM
- TGI (SK-OV-3 ovarian): > 10 µM
- TGI (OVCAR-5 ovarian): > 100 µM
- TGI (UACC-257 melanoma): > 100 µM
- TGI (SK-MEL-28 melanoma): > 100 µM
- TGI (NCI-H23 lung): > 100 µM
- TGI (SNB-78 CNS): > 100 µM
- TGI (HCT-15 colon): > 100 µM
- TGI (DMS 114 small cell lung): 33 µM
- TGI (KM20L2 colon): > 100 µM
- TGI (CCRF-CEM leukemia): > 100 µM
- TGI (NCI-H460 lung): > 100 µM
- TGI (UO-31 renal): > 100 µM
